Experimental data published in ChEMBL document CHEMBL1157539, “Thousands of chemical starting points for antimalarial lead identification” (Nature, 2010).

Each compound was assayed on Plasmodium falciparum (assay: GSK_TCMDC: Inhibition of Plasmodium falciparum 3D7 in whole erythrocytes, using parasite LDH activity as an index of growth.). Settings: Plasmodium falciparum, 3D7.
Format: functional, organism-based
`O=C(Nc1ccc(CC(=O)N2CCc3cc(Cl)c(N4CCN(C/C=C/c5ccccc5)CC4)cc32)cc1)Nc1cccc([N+](=O)[O-])c1` showed an XC50 of 761 nM. For `Cc1ccc(NC(=O)NC2CCN(CCC(NC(=O)Cc3ccccc3)c3ccc(Cl)c(Cl)c3)CC2)cc1` (centres undefined), the XC50 was 619 nM. In the case of `COc1ccc(CNC2CCN(C)CC2)cc1-c1ccc(S(=O)(=O)NCC2CCCO2)s1` (centres undefined), the XC50 was 800 nM. `COC(=O)c1ccc2[nH]cc(C3CCN(CCC4CCN(C(=O)/C=C/c5ccc(Cl)c(Cl)c5)CC4)CC3)c2c1` gave an XC50 of 512 nM. `COc1cc(Cc2cnc(N)nc2N)cc(OCCCCC2SC(=O)NC2=O)c1OC` (centres undefined) showed an XC50 of 30.7 nM. Work on `Cc1cc(=NN=Cc2ccccc2Cl)c2cccc(C)c2[nH]1` yielded an XC50 of 705 nM. With `Cc1nc(C)c(-c2ccc(C(=O)c3ccccc3)cc2)c(O)c1Br` the XC50 was 778 nM. With `FC(F)(F)c1ccc2[nH]c(-c3ccc(-c4cccc(CNCc5cnn(-c6ccccc6)n5)c4)cc3)nc2c1` the XC50 was 652 nM. `CC(C)N(Cc1ccc(-c2ccc(C(F)(F)F)cc2)cc1)C(=O)Cn1c(SCc2cccc(F)c2F)cc(=O)c2cc(CN3CCCCC3)ccc21` showed an XC50 of 872 nM. Compound `COc1ccc2nccc([C@@H](O)CN3CCC(NCC4COc5ccccc5O4)CC3)c2c1` (some centres undefined) has an XC50 of 247 nM. In the case of `Cc1ccc(C)c(NC(=O)NC2CCN(c3ccnc(Nc4ccc(F)cc4)n3)C2)c1` (centres undefined), the XC50 was 675 nM. With `CS(=O)(=O)Nc1ccc2[nH]cc(C3CCN(CC4CCC(NC(=O)/C=C/c5ccc(Cl)c(Cl)c5)CC4)CC3)c2n1` (centres undefined) the XC50 was 780 nM. With `CCCC(C)Nc1nc(C)cc(N[C@@H](Cc2ccccc2)C(=O)Nc2ccccc2)n1` (some centres undefined) the XC50 was 863 nM. `O=C(Nc1ccc(Cl)c(C(F)(F)F)c1)Nc1ccc(Cl)c(C(F)(F)F)c1` was tested, and the XC50 was 768 nM. `Cc1ccc(NC(=O)C(C)Sc2nnc(-c3ccccc3Br)[nH]2)cc1` (centres undefined) gave an XC50 of 1090 nM. `CCCCCCOc1ccc(C(=O)NCCC2CCN(CCCCCNC(=O)C=Cc3ccc(Cl)c(Cl)c3)CC2)cc1` showed an XC50 of 656 nM. For `COc1ccccc1C(=O)C1CCCN(C(=O)c2ccccc2C(F)(F)F)C1` (centres undefined), the XC50 was 602 nM. With `CN1CCC(NCc2ccc(-c3cnc(NCc4ccccc4)nc3)cc2)CC1` the XC50 was 827 nM. `Cc1ccc(S(=O)(=O)n2nccc2-c2c(-c3ccc(Cl)cc3)noc2C)cc1` showed an XC50 of 809 nM. In the case of `Cc1ccc(Nc2nc(C)cc(NC3CCCC3)n2)cc1`, the XC50 was 292 nM. Compound `O=C(/C=C/c1ccc(Cl)c(Cl)c1)N1CCC(NCc2ccc3[nH]ccc3c2)CC1` has an XC50 of 1020 nM. With `CCCc1ccccc1Nc1nc(C)cc(N(CC)CCCN2CCCCC2)n1` the XC50 was 622 nM. `CC(C)(CNC(=O)C1CCN(Cc2ccc(Cl)cc2)CC1)c1nc(-c2ccc(Cl)c(O)c2)c(-c2ccncc2)[nH]1` gave an XC50 of 623 nM. `CN1CCN(c2cc3c(cc2Cl)CCN3C(=O)Cc2ccc(Cl)c(NC(=O)Nc3cccc([N+](=O)[O-])c3)c2)CC1` gave an XC50 of 718 nM. `O=C(Nc1ccc(Cl)cc1C(=O)Nc1ccncc1)c1ccc(Cl)cc1Cl` gave an XC50 of 611 nM. Work on `O=C(/C=C/c1ccc(Cl)c(Cl)c1)NCCCCCN1CCC(NC(=O)Nc2ccccc2F)CC1` yielded an XC50 of 839 nM. `O=C1COC2(CN1C1CCN(Cc3ccc(O)c(Cl)c3)C1)c1ccccc1-c1ccccc12` (centres undefined) gave an XC50 of 960 nM. In the case of `CC(N)(Cc1ccc(O)cc1)c1nnn[nH]1` (centres undefined), the XC50 was 969 nM. In the case of `COc1cc2nc(NCC3CCCCC3)nc(NCc3ccccc3)c2cc1OC`, the XC50 was 142 nM. For `Nc1c(Cl)cc(C(O)CNCCCCCOCCc2ccc3ccccc3n2)cc1Cl` (centres undefined), the XC50 was 1020 nM. `CCCC1N=C(N)N=C(N)N1c1cccc(C(F)(F)F)c1` (centres undefined) gave an XC50 of 594 nM. `NC1=NC(Cc2ccccc2)(c2ccncc2)C(=O)N1CCCc1ccccc1` (centres undefined) showed an XC50 of 936 nM. For `O=C(Nc1ccc(-c2nc3ccccc3[nH]2)cc1)c1cncc(Br)c1`, the XC50 was 814 nM. `C[C@H](Nc1nc(C(Oc2ccccc2)c2ccccc2)nc2[nH]ncc12)c1ccccc1` (some centres undefined) showed an XC50 of 484 nM. In the case of `CCn1c(-c2nonc2N)nc2c(-c3cccc(NC(=O)Nc4cccc(Cl)c4)c3)ncc(OCCCN)c21`, the XC50 was 941 nM. `COc1ccc(N(c2nc(-c3cc(Cl)ccc3Cl)cs2)C2CCNCC2)cc1` was tested, and the XC50 was 1090 nM. `CN1CCN(Cc2ccc(-c3cc4c(Nc5ccc(OCc6cccc(F)c6)c(Cl)c5)ncnc4s3)[nH]2)CC1` showed an XC50 of 766 nM. Compound `Cc1ccc(F)c(NC(=O)c2c(-c3c(F)cccc3Cl)noc2C)c1` has an XC50 of 934 nM. For `Fc1ccc2[nH]c(-c3ccc(-c4cccc(CN5CCN(c6ccncc6)CC5)c4)cc3)nc2c1`, the XC50 was 85.7 nM. `Cc1ccc(C(=O)Nc2ccc(OC3CCN(CCC(C)C)C3)c(Cl)c2)cc1` (centres undefined) was tested, and the XC50 was 991 nM. `O=C(Nc1ccc2c(c1)CCN2C1CCN(Cc2csc3ccccc23)C1)c1ccco1` (centres undefined) showed an XC50 of 322 nM. `Clc1ccc2c(NCCc3ccccn3)ccnc2c1` gave an XC50 of 832 nM. Work on `CC(C)CCN1CCCN(Cc2ccc(C(=O)Nc3ccc(C(C)(C)C)cc3)cc2)CC1` yielded an XC50 of 867 nM. `Cc1cc(OCCCN2CCC(NS(=O)(=O)c3ccc(Cl)c(Cl)c3)C2)c2ccccc2n1` (centres undefined) was tested, and the XC50 was 1050 nM. For `c1ccc(CN2CCC(NCc3ccc(-c4ccc(CNCc5cccnc5)cn4)cc3)CC2)cc1`, the XC50 was 879 nM. Compound `Nc1ncc(-c2cccc(F)c2)cc1-c1nc2cc(F)ccc2[nH]1` has an XC50 of 175 nM. For `CC(C)COc1ccc(Cl)cc1Cc1nc(-c2nc3ccc(N4CCN(C)CC4)nc3[nH]2)cs1`, the XC50 was 751 nM. Work on `Cn1cnc(CCNC(=O)c2ccc(-c3cccc(-c4nc5cc(F)ccc5[nH]4)c3)cc2)c1` yielded an XC50 of 680 nM. `Cc1ccc(O)cc1Nc1ccnc2cc(-c3ccc(CN4CCCCC4)o3)ccc12` gave an XC50 of 166 nM. Work on `O=C(/C=C/c1ccc(Cl)c(Cl)c1)NCCCCCN1CCC(NC(=O)Nc2cccc(Cl)c2Cl)CC1` yielded an XC50 of 667 nM. In the case of `CCC(CC)CN1C(=O)C(C)(c2ccccc2)N=C1N` (centres undefined), the XC50 was 1060 nM. `CCCCCCN(CCCCCC)CCCCNc1c2ccc(Cl)cc2nc2ccc(OC)cc12` was tested, and the XC50 was 535 nM. `Cc1ccc(Cc2cnc(CN3CCCCC3)c(O)c2)cc1` was tested, and the XC50 was 890 nM. With `Cc1ccc(Nc2ccnc(Nc3ccc4c(c3)CS(=O)(=O)C4)n2)cc1O` the XC50 was 725 nM. In the case of `CNCc1ccc(-c2cccc(CNCc3ccc(-c4ccccc4)cc3)c2)c(C(=O)OC)c1`, the XC50 was 980 nM. For `Cc1[nH]c(C)c(-c2ccc(OCc3cc(F)cc(F)c3)nc2)c(=O)c1Br`, the XC50 was 103 nM. Work on `COc1cc(NC(=O)c2ccc3oc4ccccc4c3c2)ccc1OCCN1CCCCC1` yielded an XC50 of 924 nM. In the case of `Nc1oc2c(CN3CCCCCC3)c(O)ccc2c(=O)c1-c1nc2ccccc2s1`, the XC50 was 516 nM. Work on `CN1CCN(CC(O)CNC(=O)Nc2ccc(Cl)cc2)CC1` (centres undefined) yielded an XC50 of 230 nM. `COc1cccc2c(Oc3ccccc3C)ccnc12` gave an XC50 of 1230 nM. For `CN1CCN(CCCN(Cc2csc(-c3ccc(CNCc4ccccc4)cc3)n2)S(=O)(=O)c2cccc3cccnc23)CC1`, the XC50 was 1410 nM. With `CN(C)c1ccc(C=C2SC(=N)N(c3nccs3)C2=O)cc1` the XC50 was 461 nM. `O=C(CCNc1ccnc(NCCc2ccccc2)n1)Nc1ccccc1` showed an XC50 of 836 nM. `CCCCCCCCNCCCSCCCNCCCCCCCC` gave an XC50 of 1230 nM. For `Cc1cccc(CCNC(=O)c2cc(Br)cc(N3CCN(c4ccncc4)CC3)c2)c1`, the XC50 was 874 nM. `CCNc1cc(C(=O)N[C@@H](Cc2ccccc2)[C@H](O)CNC(CC)c2cccc(Cl)c2)cc(N2CCCC2=O)c1` (some centres undefined) showed an XC50 of 31.6 nM. `COc1c(C2CCN(CCN3CCC(NC(=O)c4ccc(-c5ccc(C(F)(F)F)cc5)cc4)CC3)CC2)ccc2c1CCCC2` gave an XC50 of 1360 nM. `CCCCCCSc1nnc(COc2cccc3ccccc23)n1-c1ccc(OC)cc1` showed an XC50 of 45.2 nM. `O=C(/C=C/c1ccc(Cl)cc1Cl)NC1CCC(CN2CCC(c3c[nH]c4ccccc34)CC2)CC1` (centres undefined) showed an XC50 of 798 nM. `COc1cc(-n2cnc3cc(-c4ccc([N+](=O)[O-])cc4)sc3c2=O)ccc1OCCN1CCCC1` showed an XC50 of 775 nM. For `O=C(Nc1ccc2c(c1)CCN(C1CCC1)CC2)c1cn(-c2ccccc2)nc1-c1ccccc1`, the XC50 was 808 nM. With `COc1ccc2nc(N3CCN(C(=O)OC(C)(C)C)CC3)nc(NCCCc3ccccc3)c2c1` the XC50 was 687 nM. `CC1(C)CN2CCCC2c2cc(NC(=O)/C=C/c3ccccc3Cl)ccc21` (centres undefined) was tested, and the XC50 was 991 nM. In the case of `CCCCN(CCCC)CCCN(CCCN(CCCC)CCCC)c1cc(C)nc(Nc2ccc(Cl)cc2)n1`, the XC50 was 370 nM. In the case of `NC(=O)CCC(NC(=O)CNC(=O)Nc1cccc(C(F)(F)F)c1)C(=O)O` (centres undefined), the XC50 was 803 nM. `O=C(N[C@@H](Cc1ccccc1)[C@H](O)CNC1CCCc2ccccc21)c1cc(C2CCCC2)cc(N2CCCC2=O)c1` (some centres undefined) gave an XC50 of 162 nM. `CCCc1ccc(-c2csc(NC(=O)c3ccc([N+](=O)[O-])o3)n2)cc1` showed an XC50 of 1210 nM. `Clc1cc(Nc2ncnc3sc(C#Cc4ncc[nH]4)cc23)ccc1OCc1ccccn1` was tested, and the XC50 was 1110 nM. `CCN(c1ccccc1)S(=O)(=O)c1ccc(NC(=O)c2cc(-c3cc(C)ccc3O)n[nH]2)cc1` showed an XC50 of 767 nM. `FC(F)(F)c1cnc(Sc2nnc(-c3ccco3)o2)c(Cl)c1` showed an XC50 of 791 nM. In the case of `COc1ccc2nccc([C@@H](O)CN3CCC(NC(=O)/C=C/c4ccc(F)c5ccccc45)CC3)c2c1`, the XC50 was 184 nM. `Cc1cccc2nc(-c3cccc(-c4ccc(CNCc5ccccc5)cc4)c3)[nH]c12` gave an XC50 of 148 nM. With `CCCc1nc2c(N3CC(NC(=O)/C=C/c4ccccc4)C3)cccc2n1C1CC1` the XC50 was 554 nM. `COc1ccc2nccc([C@@H](O)CN3CCC(NC(=O)/C=C/c4ccc5[nH]c(=O)ccc5c4)CC3)c2c1` was tested, and the XC50 was 967 nM. `O=C1COC2(CN1C1CCN(Cc3ccc(O)cc3Cl)C1)c1ccccc1-c1ccccc12` (centres undefined) showed an XC50 of 1330 nM. With `Cc1ccc(N(CCC(=N)N)Cc2ccccc2)cc1` the XC50 was 657 nM. Compound `COc1ccccc1CCNc1nc(C)cc(N[C@@H](Cc2ccccc2)C(=O)NCCc2ccccc2)n1` has an XC50 of 1110 nM. In the case of `CNCCNCc1cccc(-c2ccc(-c3nc4ccccc4[nH]3)cc2)c1`, the XC50 was 743 nM. `CC(=O)Nc1cccc(CNCc2ccc(-c3cnc(N4CCCC(C)(C)C4)nc3)cc2)c1` showed an XC50 of 822 nM. With `CCN(CCCN1CCCCC1)c1nccc(Nc2ccc(Cl)cc2)n1` the XC50 was 1190 nM. `CCOc1cc2ccccc2cc1CNCCCCCCNCc1cc2ccccc2cc1OCC` gave an XC50 of 979 nM. For `O=C(NCCNc1ccnc(NCc2ccc(F)cc2)n1)c1cc2ccccc2s1`, the XC50 was 695 nM. Work on `Cc1cccc2nc(-c3ccc(-c4cccc(CN5CCN(CCO)CC5)c4)cc3)[nH]c12` yielded an XC50 of 730 nM. Compound `CC(=O)Nc1cccc(-c2cnc(N)c3cc(-c4ccc5c(c4)OCO5)ccc23)c1` has an XC50 of 491 nM. `C#CCOc1ccccc1CN1CCC(N2CCc3cc(NC(=O)c4cc(C)on4)ccc32)C1` (centres undefined) showed an XC50 of 675 nM. With `CCOCc1cnc(C)nc1CNC(=O)c1c(C)[nH]c2ccc(C)cc12` the XC50 was 1010 nM. Compound `COc1cc2nc(NCCN3CCOCC3)n3nc(-c4ccccc4)nc3c2cc1OC` has an XC50 of 215 nM. Work on `COc1cc(SC)ccc1C(=O)N1CC(C)CC(C)C1` (centres undefined) yielded an XC50 of 354 nM. In the case of `O=C(NC1CCCCC1)N(Cc1cccc(-c2ccc(CNC3CCCC3)cc2)c1)C1CCN(Cc2ccccc2)CC1`, the XC50 was 951 nM.
